Entries after “also recorded” stand apart in the source; their conditions may differ.
How the values were obtained:
[1] = target: T1, full-length recombinant rat vitamin D receptor (Rattus norvegicus, UniProt P13053); assay: Vitamin D receptor competitive binding with [3H]-1,25(OH)2D3; details: FIG. 1
T1 construct: Full-length recombinant rat receptor was expressed in E. coli BL21 (DE3) Codon Plus RIL cells; histidine tag (C); made in house; host or cells: E. coli BL21 (DE3) Codon Plus RIL
T1 sequence (P13053 1-423): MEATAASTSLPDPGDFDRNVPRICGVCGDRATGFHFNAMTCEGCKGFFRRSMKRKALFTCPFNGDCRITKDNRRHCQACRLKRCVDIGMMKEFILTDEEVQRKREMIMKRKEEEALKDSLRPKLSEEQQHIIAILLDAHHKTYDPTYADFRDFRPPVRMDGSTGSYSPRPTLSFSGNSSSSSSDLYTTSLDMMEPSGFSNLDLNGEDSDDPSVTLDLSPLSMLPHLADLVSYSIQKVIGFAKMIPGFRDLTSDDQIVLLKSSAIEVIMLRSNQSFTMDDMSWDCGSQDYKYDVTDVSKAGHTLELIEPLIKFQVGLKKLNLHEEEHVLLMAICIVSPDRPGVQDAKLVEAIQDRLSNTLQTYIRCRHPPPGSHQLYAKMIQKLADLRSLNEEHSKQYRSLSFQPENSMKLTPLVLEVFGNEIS
Experimental: Full-length recombinant rat receptor was expressed in E. coli BL21 (DE3) Codon Plus RIL cells and purified to homogeneity using two different column chromatography systems. The first system was a nickel affinity resin that utilizes the C-terminal histidine tag on this protein. The protein that was eluted from this resin was further purified using ion exchange chromatography (S-Sepharose Fast Flow). Aliquots of the purified protein were quick frozen in liquid nitrogen and stored at −80° C. until use. For use in binding assays, the protein was diluted in TEDK50 (50 mM Tris, 1.5 mM EDTA, pH7.4, 5 mM DTT, 150 mM KCl) with 0.1% Chaps detergent. The receptor protein and ligand concentration were optimized such that no more than 20% of the added radiolabeled ligand was bound to the receptor.
Radiolabeled and unlabeled ligands were added to 100 mcl of the diluted protein at a final ethanol concentration of ≦10%, mixed and incubated overnight on ice to reach binding equilibrium. The following day, 100 mcl of hydroxylapatite slurry (50%) was added to each tube and mixed at 10-minute intervals for 30 minutes. The hydroxylapaptite was collected by centrifugation and then washed three times with Tris-EDTA buffer (50 mM Tris, 1.5 mM EDTA, pH 7.4) containing 0.5% Titron X-100. […] Total binding was determined from the tubes containing only radiolabeled ligand.

[2] = system: HL-60 cells; assay: HL-60 cell differentiation (nitro blue tetrazolium reduction); format: cell-based, human; details: FIG. 2; for EC50: HL-60 cells, 4 days
Experimental: The study drugs were dissolved in ethanol and the concentrations determined using UV spectrophotometry. Serial dilutions were prepared so that a range of drug concentrations could be tested without changing the final concentration of ethanol (≦0.2%) present in the cell cultures.
Human promyelocytic leukemia (HL60) cells were grown in RPMI-1640 medium containing 10% fetal bovine serum. The cells were incubated at 37° C. in the presence of 5% CO2.
HL60 cells were plated at 1.2×10^5 cells/ml. Eighteen hours after plating, cells in duplicate were treated with drug. Four days later, the cells were harvested and a nitro blue tetrazolium reduction assay was performed (Collins et al., 1979; J. Exp. Med. 149:969-974). The percentage of differentiated cells was determined by counting a total of 200 cells and recording the number that contained intracellular black-blue formazan deposits. Verification of differentiation to monocytic cells was determined by measuring phagocytic activity (data not shown).

[3] = system: 24-hydroxylase (24Ohase) gene promoter; assay: In vitro transcription assay, 24-hydroxylase gene promoter luciferase reporter in ROS 17/2.8 (bone) cells; format: cell-based; details: ROS 17/2.8 cells, 24-hydroxylase promoter-luciferase, 16 hours; FIG. 3; read-out: EC50, transcriptional activity in bone cells
Experimental: Transcription activity was measured in ROS 17/2.8 (bone) cells that were stably transfected with a 24-hydroxylase (24Ohase) gene promoter upstream of a luciferase reporter gene (Arbour et al., 1998). Cells were given a range of doses. Sixteen hours after dosing the cells were harvested and luciferase activities were measured using a luminometer.
RLU=relative luciferase units.

[4] = system: bone calcium mobilization; assay: Bone calcium mobilization (serum calcium) in vitamin D-deficient rats; format: in vivo, rat; details: 0.02% Ca diet, FIG. 4
Experimental: (§1) Male, weanling Sprague-Dawley rats were placed on Diet 11 (0.47% Ca) diet +AEK oil for one week followed by Diet 11 (0.02% Ca) +AEK oil for 3 weeks. The rats were then switched to a diet containing 0.47% Ca for one week followed by two weeks on a diet containing 0.02% Ca. Dose administration began during the last week on 0.02% calcium diet. Four consecutive ip doses were given approximately 24 hours apart. Twenty-four hours after the last dose, blood was collected from the severed neck and the concentration of serum calcium determined as a measure of bone calcium mobilization. The first 10 cm of the intestine was also collected for intestinal calcium transport analysis using the everted gut sac method.

[5] = system: intestinal calcium transport; assay: Intestinal calcium transport, everted gut sac method, vitamin D-deficient rats; format: in vivo, rat; details: FIG. 5; for intestinal calcium transport at 260 pmol/day, in words: ip, 4 consecutive days
Experimental: as §1

SMILES | VDR binding affinity compared to 1,25(OH)2D3 [1] | Ki ([1]; full-length recombinant rat VDR, read-out: Ki, competition with [3H]-1,25(OH)2D3 for binding to the vitamin D receptor) | potency on HL-60 cell differentiation relative to 1,25(OH)2D3 [2] | EC50 ([2]; Homo sapiens, 96 h) | EC50 [3] | bone calcium mobilization activity (serum calcium), in words [4] | dose at which any substantial effect on bone calcium mobilization was seen ([4]; ip, 4 consecutive days) | dose giving the same mobilization of bone calcium ([4]; ip, 4 consecutive days) | intestinal calcium transport at 260 pmol/day, in words [5] | intestinal calcium transport activity, in words ([5]; vitamin D-deficient rats) | EC50 [2]
C=C1[C@H](O)CC(=C/C=C2\CCC[C@]3(C)[C@@H](/C(C)=C/CCC(C)(C)O)CC[C@@H]23)C[C@H]1O [Vit III 20-22E, 2-methylene-(20E)-20(22)-dehydro-19-nor-1α,25-dihydroxyvitamin D3] | bound with the same affinity | 0.1 nM | 3 to 4 times | 0.8 nM | 0.02 nM | less bone calcium mobilization activity; also recorded: relatively low, or little, activity in mobilizing calcium from bone | 7020 pmol/day | 780 pmol/day | promotes intestinal calcium transport | about the same activity; also recorded: about the same as or equal to 1,25(OH)2D3 | –
C=C1/C(=C\C=C2/CCC[C@]3(C)[C@@H]([C@H](C)CCCC(C)(C)O)CC[C@@H]23)C[C@@H](O)C[C@@H]1O [1,25(OH)2D3, 1α,25-dihydroxyvitamin D3, reference compound] | – | – | – | – | – | increased serum calcium levels at all dosages | – | 87 pmol/day | significant increase | – | 2 nM

Source: patent US8222236B2, “2-methylene-(20E)-20(22)-dehydro-19-nor-vitamin D analogs” (Wisconsin Alumni Research Foundation, priority 2008, dated 2012)
